The record followed here is patent publication US20190358174A1, “ACTIVE AGENTS AGAINST PROTOZOA” (Christian-Albrechts-Universität zu Kiel, priority 2016, published 2019).

Each structure is given as a SMILES string. Like-named read-outs stand apart in the source and are kept apart here.

One assay concerns the target T1, FNT wild-type (Plasmodium falciparum, UniProt O77389).
T1 construct: expressed in transfected cells; host or cells: Saccharomyces cerevisiae W303-1A jen1Δ ady2Δ, plasmid pDR196 (PMA promoter)
The assay can be described thus: yeast test system, 14C-L-lactate uptake, FNT wild-type expressed in Saccharomyces cerevisiae. The assay is classed as cell-based. The source says:
(§1) The FNT of the wild-type plasmodium (available under accession number PF3D7_0316600 in the data bank PlasmoDB) and of the resistant plasmodia (position of the mutation in the open reading frame: guanine 319 to adenine) were expressed in the yeast Saccharomyces cerevisiae W303-1A jen1Δ ady2Δ from plasmid pDR196 (PMA promoter). In the yeast, the endogenous genes for the monocarboxylate transporter Jenlp (sequence accession No. CAA82062 NCBI) and Ady2p (sequence accession No. KZV 12856) were deleted (obtained from M. Casal, Universidade do Minho, Portugal).
This yeast was grown in SD medium with addition of adenine, histidine, leucine, tryptophan and 2% (wt/v) glucose at 30° C. up to an OD600 of 0.8 to 1.0, harvested by centrifugation and washed once with water and centrifuged down again, and suspended in 50 mM HEPES/TRIS (pH 6.8) and adjusted to an OD600 of 50±10% and stored on ice. For contacting with one of the compounds a compound of one step of a dilution series in DMSO was provided in a reaction vessel and onto this 80 μL of the yeast suspension were pipetted. […] The lactate concentration obtained was 1 mM. After an incubation of 30 s the uptake of lacatate was stopped by a rapid dilution by means of adding of 1 ml ice cold water. From the yeast suspension diluted this way the yeast cells were brought onto a filter membrane by vacuum filtration, washed with 7 ml cold water and transferred with the filter membrane into 3 ml scintillation cocktail. After 24 h of incubation at 18° C. in the scintillation cocktail, in which the cells were lysed, the amount of radioactively labelled lactate was measured by means of a scintillation counter. The total amount of lactate which was taken up by the yeast was calculated from the measured amount of radioactively labelled lactate. As a positive control the yeast was treated equally in parallel testing with DMSO without one of the compounds and was regarded as 100% FNT activity, respectively 0% inhibition. In testings with the compound a lower amount of lactate taken up was found in comparison to the parallel positive control. As a negative control yeast was treated in parallel in which the endogenous genes for the monocarboxylate transporters Jenlp and Ady2p were deleted, but the FNT from plasmodium was not expressed. This negative control was regarded as 0% FNT activity, respectively 100% inhibition.
(§2) As a representative for a Formiate-Nitrit-Transporter protein (FNT) from protozoa, the FNT of Plasmodium falciparum as wild-type and as […] mutant was used, which were each expressed in yeast and incubated with dilutions of the compounds to be tested as described in Example 1.

Another assay addresses T2, Gly107Ser mutant of FNT (Plasmodium falciparum, UniProt O77389, G107S).
T2 construct: expressed in transfected cells; host or cells: Saccharomyces cerevisiae W303-1A jen1Δ ady2Δ, plasmid pDR196 (PMA promoter)
Briefly: yeast test system, 14C-L-lactate uptake, FNT Gly107Ser mutant expressed in Saccharomyces cerevisiae. Type of assay: cell-based.
Source text: as §1
This yeast was grown in SD medium with addition of adenine, histidine, leucine, tryptophan and 2% (wt/v) glucose at 30° C. up to an OD600 of 0.8 to 1.0, harvested by centrifugation and washed once with water and centrifuged down again, and suspended in 50 mM HEPES/TRIS (pH 6.8) and adjusted to an OD600 of 50±10% and stored on ice. For contacting with one of the compounds a compound of one step of a dilution series in DMSO was provided in a reaction vessel and onto this 80 μL of the yeast suspension were pipetted. After an incubation on ice for 15 to 20 min 20 μL 5 mM Na-L-lacate plus 0.04 μCi radioactively labelled L-(1-^14C) lactate was added. The lactate concentration obtained was 1 mM. After an incubation of 30 s the uptake of lacatate was stopped by a rapid dilution by means of adding of 1 ml ice cold water. From the yeast suspension diluted this way the yeast cells were brought onto a filter membrane by vacuum filtration, washed with 7 ml cold water and transferred with the filter membrane into 3 ml scintillation cocktail. After 24 h of incubation at 18° C. in the scintillation cocktail, in which the cells were lysed, the amount of radioactively labelled lactate was measured by means of a scintillation counter. The total amount of lactate which was taken up by the yeast was calculated from the measured amount of radioactively labelled lactate. As a positive control the yeast was treated equally in parallel testing with DMSO without one of the compounds and was regarded as 100% FNT activity, respectively 0% inhibition. In testings with the compound a lower amount of lactate taken up was found in comparison to the parallel positive control. As a negative control yeast was treated in parallel in which the endogenous genes for the monocarboxylate transporters Jenlp and Ady2p were deleted, but the FNT from plasmodium was not expressed. This negative control was regarded as 0% FNT activity, respectively 100% inhibition.
as §2

In another assay the test system is Plasmodium falciparum. Briefly: growth of Plasmodium falciparum culture (parasitaemia by FACS). The assay is classed as cell-based. The procedure: The effect of the following compounds on the growth of Plasmodium falciparum was tested using cultivated plasmodia:
The plasmodium culture was maintained in 5% 0+ erythrocytes in RPMI 1640 medium with 0.5% Albumax at 37° C. […] A change of medium was made after 24 h and the compounds were added freshly.

Assay [1] concerns resistant plasmodia (FNT mutation Gly107Ser). Briefly: microbe, parasite or virus in culture. The assay is classed as cell-based, Plasmodium falciparum. The following applies: for IC50: Plasmodium falciparum, read-out: plasmodium culture IC50 against Gly107Ser mutant.
Where [2] appears, read: yeast test system, 15 to 20 min preincubation, 1 mM lactate, pH 6.8, read-out: IC50 against FNT wild-type.
The mark [3] stands for this setting: Plasmodium falciparum; 48 h after addition, parasitaemia by FACS; read-out: inhibitory effect IC50 on the growth of the plasmodium culture.
Where [4] appears, read: Plasmodium falciparum; read-out: plasmodium culture IC50 against wild-type.

T2 sequence (O77389 whole entry G107S): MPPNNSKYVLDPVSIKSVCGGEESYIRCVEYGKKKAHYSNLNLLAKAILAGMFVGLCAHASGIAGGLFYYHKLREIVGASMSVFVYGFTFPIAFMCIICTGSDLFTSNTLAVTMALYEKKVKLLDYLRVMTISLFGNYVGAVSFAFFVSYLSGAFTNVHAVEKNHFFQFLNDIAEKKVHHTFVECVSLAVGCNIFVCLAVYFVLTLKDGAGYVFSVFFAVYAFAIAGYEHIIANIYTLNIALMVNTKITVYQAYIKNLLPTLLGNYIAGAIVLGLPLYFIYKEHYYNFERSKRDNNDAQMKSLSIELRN
T1 sequence (O77389 whole entry): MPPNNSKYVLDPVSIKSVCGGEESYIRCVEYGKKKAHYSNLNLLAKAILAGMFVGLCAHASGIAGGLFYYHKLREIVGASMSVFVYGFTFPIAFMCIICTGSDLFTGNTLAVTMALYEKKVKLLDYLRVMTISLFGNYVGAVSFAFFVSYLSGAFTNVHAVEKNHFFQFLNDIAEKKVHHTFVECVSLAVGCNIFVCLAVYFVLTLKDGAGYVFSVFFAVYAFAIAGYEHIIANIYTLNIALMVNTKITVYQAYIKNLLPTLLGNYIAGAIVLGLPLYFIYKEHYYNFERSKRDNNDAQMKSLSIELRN

`COc1ccc(CCC(=O)/C=C(\O)C(F)(F)C(F)(F)F)cc1` [BH-324.2] registered an IC50 on FNT wild-type of 160 nM. Besides, on Gly107Ser mutant of FNT, the IC50 came to 6300 nM and the “inhibition of the Gly107Ser mutant (in words)” value is on record as “inhibit the Gly107Ser mutant significantly”.

For the molecule `O=C(/C=C(\O)C(F)(F)C(F)(F)F)/C=C/c1ccccc1` [BH-292], the 50% inhibitory concentration (IC50) is 260 nM at FNT wild-type (setting [2]) and 25000 nM at Gly107Ser mutant of FNT.

For `COc1ccc2c(c1)OC(O)(C(F)(F)C(F)(F)F)CC2=O` (stereo not shown) [MMV007839, reference compound], the 50% inhibitory concentration (IC50) in the assay on Plasmodium falciparum (setting [3]) turned out to be 140 nM; at FNT wild-type (preincubation 20 min, read-out: IC50 of lactate transport), 170 nM; on FNT wild-type (preincubation 24 h prior to addition of lactate, read-out: IC50 of lactate transport), 15 nM. For the same molecule, the “reversibility of FNT inhibition by washing of the cells” value on FNT wild-type (washing with 50 mM HEPES-Tris, pH 6.8) was “could not be reduced by washing”.

For the molecule `O=C1CC(O)(C(F)(F)C(F)(F)F)Oc2ccccc21` (stereo not shown) [MMV000972, reference compound], the IC50 with Plasmodium falciparum (setting [3]) was 1700 nM.

As for `O=C(/C=C(\O)C(F)(F)C(F)(F)F)c1cc2ccccc2o1` [BH-306], the 50% inhibitory concentration (IC50) at FNT wild-type (setting [2]) was found to be 180 nM; against Gly107Ser mutant of FNT it was 15000 nM.

At Gly107Ser mutant of FNT, `Cn1ccc(C(=O)/C=C(\O)C(F)(F)C(F)(F)F)c1` [BH-269] showed an IC50 of 15000 nM.

Regarding `COc1ccc(C(=O)/C=C(\O)C(F)(F)C(F)(F)C(F)(F)F)c(O)c1` [BH-362], the concentration for half-maximal inhibition (IC50) in the assay on Plasmodium falciparum (Plasmodium falciparum, read-out: plasmodium culture IC50 against wild-type) is 570 nM; on FNT wild-type (setting [2]), 250 nM.

Consider `CCOc1ccc(C(=O)/C=C(\O)C(F)(F)C(F)(F)F)c(O)c1` [BH-326], for which the “inhibition of the plasmodium culture (in words)” value in the assay on Plasmodium falciparum is reported as “effective inhibition”. The half-inhibitory concentration (IC50) in the assay with Plasmodium falciparum (setting [4]) was found to be 50 nM; at FNT wild-type (setting [2]), 240 nM. In addition, the “inhibition of the FNT in the yeast test system (in words)” value (“inhibition of the FNT” below) against FNT wild-type is on record as “effective inhibition”.

Turning to `CC(C)Oc1ccc(C(=O)/C=C(\O)C(F)(F)C(F)(F)F)c(O)c1` [BH-340], in the assay on Plasmodium falciparum, the “inhibition of the plasmodium culture (in words)” value is “effective inhibition”. The IC50 came to 100 nM with Plasmodium falciparum (setting [4]) and 400 nM at FNT wild-type (setting [2]). On FNT wild-type, the “inhibition of the FNT” value is given as “effective inhibition”.

At FNT wild-type, `O=C(/C=C(\O)C(F)(F)C(F)(F)F)c1ccc(Cl)cc1` [BH-301] showed a 50% inhibitory concentration (IC50) of 120 nM. At Gly107Ser mutant of FNT, half-maximal inhibition (IC50) was put at 5800 nM and the “inhibition of the Gly107Ser mutant (in words)” value is “inhibit the Gly107Ser mutant significantly”.

Consider `O=C(/C=C(\O)C(F)(F)C(F)(F)F)c1ccc(OCc2ccccc2)cc1O` [BH-388], for which the half-inhibitory concentration (IC50) at FNT wild-type (setting [2]) is 890 nM.

Consider `CC(C)(O)CC(=O)/C=C(\O)C(F)(F)C(F)(F)F` [BH-262], for which the concentration for half-maximal inhibition (IC50) with Plasmodium falciparum (setting [4]) is 10000 nM; in assay [1], 70000 nM.

Consider `O=C(/C=C(\O)C(F)(F)C(F)(F)F)c1ccc(Cl)cc1O` [BH-317], for which the “inhibition of the plasmodium culture (in words)” value in the assay on Plasmodium falciparum was “effective inhibition”. Also, the figures for the half-maximal inhibitory concentration (IC50) in the assay on Plasmodium falciparum (setting [4]) and at FNT wild-type (setting [2]) were 370 nM and 120 nM, respectively. Also, the “inhibition of the FNT” value against FNT wild-type is “effective inhibition”.

Turning to `COc1ccc(C(=O)/C=C(\O)C(F)(F)C(F)(F)F)cc1` [BH-296], the IC50 was determined as 3400 nM with Plasmodium falciparum (setting [4]), 8900 nM in assay [1] and 140 nM on FNT wild-type (setting [2]). For the same molecule, the “effect against the resistant parasites (in words)” value in assay [1] (pharmaceutically acceptable concentration range) was “effective against the resistant parasites”. In addition, the “inhibition of the Gly107Ser mutant (in words)” value against Gly107Ser mutant of FNT was “inhibit the Gly107Ser mutant significantly”.

`CC(=O)C=C(O)C(F)(F)C(F)(F)F` [BH-204]: the IC50 on FNT wild-type (setting [2]) was 1900 nM; at Gly107Ser mutant of FNT (yeast test system, 15 to 20 min preincubation, 1 mM lactate, pH 6.8, read-out: IC50 against Gly107Ser mutant of FNT) it was 8100 nM.
